{"source": "patent US9695155B2", "about": "“Herbicidal substituted pyrimidinyloxy benzene compounds” (E. I. DU PONT DE NEMOURS AND COMPANY, priority 2013, dated 2017)", "key": {"[1]": {"tested_on": "morningglory", "experiment": "Test C preemergence", "format": "in vivo, Ipomoea coccinea", "conditions": "Ipomoea, pre-emergence, preemergence, read-out: Morningglory plant response rating", "method_in_brief": "(§1)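 Visual ratings on a 0–100 scale (100 = complete control) were made versus untreated controls after 13–15 greenhouse days. Chemicals in a surfactant-containing non-phytotoxic solvent were applied either preemergence to seeds in loam–sand soil or postemergence to 1- to 4-leaf plants 2–18 cm tall.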"}, "[2]": {"tested_on": "velvetleaf", "experiment": "Test A postemergence", "format": "in vivo, Abutilon theophrasti", "conditions": "0 to 100 scale where 0 is no effect and 100 is complete control", "method_in_brief": "(§2)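 Pre- and postemergence greenhouse screen. Soil: loam + sand. Spray carrier: solvent mixture, non-phytotoxic, with surfactant. Post timing at 1–2 leaves, height 2–10 cm. Readout: visual injury on a 0–100 scale roughly 10 days after application, untreated plants as reference.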"}, "[3]": {"tested_on": "sedge, umbrella", "experiment": "Test B flooded paddy test", "format": "in vivo, Cyperus difformis", "conditions": "Cyperus difformis, Flood, 250 g ai/ha; 0 to 100 scale where 0 is no effect and 100 is complete control; read-out: Plant response rating, Sedge, Umbrella", "method_in_brief": "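Compound added straight to paddy water, with pots kept flooded 3 cm above soil, on plants grown to the 2-leaf stage. Visual scoring 0-100 (100 = complete control) against untreated controls after 13 to 15 greenhouse days.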"}, "[4]": {"tested_on": "giant foxtail", "experiment": "Test C postemergence", "format": "in vivo, Setaria faberii", "conditions": "Setaria faberi, post-emergence", "method_in_brief": "as §1"}, "[5]": {"tested_on": "giant foxtail", "experiment": "Test A preemergence", "format": "in vivo, Setaria faberii", "conditions": "Setaria faberi, pre-emergence, 240 h, 0 to 100 scale where 0 is no effect and 100 is complete control", "method_in_brief": "as §2"}, "[6]": {"tested_on": "wheat, winter", "experiment": "Test C postemergence", "format": "in vivo, Triticum aestivum", "method_in_brief": "as §1"}, "[7]": {"tested_on": "barnyardgrass", "experiment": "Test A postemergence", "format": "in vivo, Echinochloa crus-galli", "conditions": "Echinochloa crus-galli, post-emergence, 240 h, 0 to 100 scale where 0 is no effect and 100 is complete control", "method_in_brief": "as §2"}, "[8]": {"tested_on": "velvetleaf", "experiment": "Test C preemergence", "format": "in vivo, Abutilon theophrasti", "conditions": "Abutilon theophrasti, pre-emergence, preemergence, read-out: Velvetleaf plant response rating", "method_in_brief": "as §1"}, "[9]": {"tested_on": "waterhemp", "experiment": "Test C preemergence", "format": "in vivo, Amaranthus rudis", "conditions": "Amaranthus tuberculatus, pre-emergence, preemergence, read-out: Waterhemp plant response rating", "method_in_brief": "as §1"}, "[10]": {"tested_on": "morningglory", "experiment": "Test C postemergence", "format": "in vivo, Ipomoea coccinea", "method_in_brief": "as §1"}, "[11]": {"tested_on": "yellow nutsedge", "experiment": "Test C postemergence", "format": "in vivo, Cyperus esculentus", "method_in_brief": "as §1"}, "[12]": {"tested_on": "ragweed", "experiment": "Test C postemergence", "format": "in vivo, Ambrosia elatior", "method_in_brief": "as §1"}, "[13]": {"tested_on": "wheat", "experiment": "Test A postemergence", "format": "in vivo, Triticum aestivum", "conditions": "Triticum aestivum, post-emergence, 240 h, 0 to 100 scale where 0 is no effect and 100 is complete control", "method_in_brief": "as §2"}, "[14]": {"tested_on": "corn", "experiment": "Test C preemergence", "format": "in vivo, Zea mays", "conditions": "Zea mays, pre-emergence", "method_in_brief": "as §1"}, "[15]": {"tested_on": "galium", "experiment": "Test C postemergence", "format": "in vivo, Galium aparine", "conditions": "Galium, post-emergence", "method_in_brief": "as §1"}, "[16]": {"conditions": "16 g ai/ha, scale 0 to 100 (0 no effect, 100 complete control)"}, "[17]": {"conditions": "62 g ai/ha, scale 0 (no effect) to 100 (complete control)"}, "[18]": {"conditions": "125 g ai/ha, scale 0 (no effect) to 100 (complete control)"}, "[19]": {"conditions": "31 g ai/ha, postemergence, visual rating, scale 0 to 100 (0 no effect, 100 complete control), 13 to 15 days"}}}
{"smiles": "FC(F)(F)c1cn(-c2ccccc2Oc2ncc(Cl)cn2)nn1", "note": "[Compound 166, 5-chloro-2-[2-[4-(trifluoromethyl)-1H-1,2,3-triazol-1-yl]phenoxy]pyrimidine]", "values": [{"measurement": "pest or weed control at 16 g/ha", "setting": "[1]; [16]", "result": 15, "unit": "%"}, {"measurement": "pest or weed control at 62 g/ha", "setting": "[1]; [17]", "result": 98, "unit": "%"}, {"measurement": "pest or weed control at 125 g/ha", "setting": "[1]; [18]", "result": 100, "unit": "%"}, {"measurement": "Velvetleaf plant response rating", "setting": "[2]; 125 g ai/ha", "result": 100}, {"measurement": "pest or weed control at 500 g/ha", "setting": "[2]; Abutilon theophrasti, post-emergence, 240 h, 500 g ai/ha, read-out: Plant response rating, Velvetleaf", "result": 100, "unit": "%"}, {"measurement": "pest or weed control at 250 g/ha", "setting": "[3]", "result": 95, "unit": "%"}, {"measurement": "pest or weed control at 16 g/ha", "setting": "[4]; 16 g ai/ha, postemergence, 0 is no effect, 100 is complete control, read-out: Plant response rating (0 to 100), Foxtail, Giant", "result": 5, "unit": "%"}, {"measurement": "pest or weed control at 31 g/ha", "setting": "[4]; 31 g ai/ha, postemergence, visual rating, scale 0 to 100 (0 no effect, 100 complete control), 13 to 15 days, read-out: Foxtail, Giant plant response rating", "result": 5, "unit": "%"}, {"measurement": "pest or weed control at 125 g/ha", "setting": "[4]; 125 g ai/ha, postemergence, visual rating, scale 0 to 100 (0 no effect, 100 complete control), read-out: Plant response rating, Foxtail, Giant", "result": 35, "unit": "%"}, {"measurement": "pest or weed control at 62 g/ha", "setting": "[4]; Postemergence, 62 g ai/ha, scale 0 to 100 (0 no effect, 100 complete control), read-out: Plant response rating, Foxtail, Giant", "result": 10, "unit": "%"}, {"measurement": "pest or weed control at 125 g/ha", "setting": "[5]; 125 g ai/ha, read-out: Plant response rating, Foxtail, Giant", "result": 100, "unit": "%"}, {"measurement": "pest or weed control at 500 g/ha", "setting": "[5]; 500 g ai/ha, read-out: Foxtail, Giant plant response rating", "result": 100, "unit": "%"}, {"measurement": "Wheat plant response rating", "setting": "[6]; [19]", "result": 5}, {"measurement": "plant injury at 16 g/ha", "setting": "[6]; Triticum aestivum, post-emergence, 16 g ai/ha, postemergence, 0 is no effect, 100 is complete control, read-out: Plant response rating (0 to 100), Wheat", "result": 5, "unit": "%"}, {"measurement": "plant injury at 125 g/ha", "setting": "[6]; Triticum aestivum, post-emergence, 125 g ai/ha, postemergence, visual rating, scale 0 to 100 (0 no effect, 100 complete control), read-out: Plant response rating, Wheat", "result": 20, "unit": "%"}, {"measurement": "plant injury at 62 g/ha", "setting": "[6]; Triticum aestivum, post-emergence, Postemergence, 62 g ai/ha, scale 0 to 100 (0 no effect, 100 complete control), read-out: Plant response rating, Wheat", "result": 35, "unit": "%"}, {"measurement": "pest or weed control at 125 g/ha", "setting": "[7]; 125 g ai/ha, read-out: Barnyardgrass plant response rating", "result": 90, "unit": "%"}, {"measurement": "pest or weed control at 500 g/ha", "setting": "[7]; 500 g ai/ha, read-out: Plant response rating, Barnyardgrass", "result": 100, "unit": "%"}, {"measurement": "pest or weed control at 16 g/ha", "setting": "[8]; [16]", "result": 80, "unit": "%"}, {"measurement": "pest or weed control at 62 g/ha", "setting": "[8]; [17]", "result": 100, "unit": "%"}, {"measurement": "pest or weed control at 125 g/ha", "setting": "[8]; [18]", "result": 100, "unit": "%"}, {"measurement": "pest or weed control at 16 g/ha", "setting": "[9]; [16]", "result": 100, "unit": "%"}, {"measurement": "pest or weed control at 62 g/ha", "setting": "[9]; [17]", "result": 100, "unit": "%"}, {"measurement": "pest or weed control at 125 g/ha", "setting": "[9]; [18]", "result": 100, "unit": "%"}, {"measurement": "Morningglory plant response rating", "setting": "[10]; [19]", "result": 70}, {"measurement": "pest or weed control at 16 g/ha", "setting": "[10]; Ipomoea, post-emergence, 16 g ai/ha, postemergence, 0 is no effect, 100 is complete control, read-out: Plant response rating (0 to 100), Morningglory", "result": 85, "unit": "%"}, {"measurement": "pest or weed control at 125 g/ha", "setting": "[10]; Ipomoea, post-emergence, 125 g ai/ha, postemergence, visual rating, scale 0 to 100 (0 no effect, 100 complete control), read-out: Plant response rating, Morningglory", "result": 95, "unit": "%"}, {"measurement": "pest or weed control at 62 g/ha", "setting": "[10]; Ipomoea, post-emergence, Postemergence, 62 g ai/ha, scale 0 to 100 (0 no effect, 100 complete control), read-out: Plant response rating, Morningglory", "result": 85, "unit": "%"}, {"measurement": "Nutsedge, Yellow plant response rating", "setting": "[11]; [19]", "result": 5}, {"measurement": "pest or weed control at 16 g/ha", "setting": "[11]; Cyperus, post-emergence, 16 g ai/ha, postemergence, 0 is no effect, 100 is complete control, read-out: Plant response rating (0 to 100), Nutsedge, Yellow", "result": 0, "unit": "%"}, {"measurement": "pest or weed control at 125 g/ha", "setting": "[11]; Cyperus, post-emergence, 125 g ai/ha, postemergence, visual rating, scale 0 to 100 (0 no effect, 100 complete control), read-out: Plant response rating, Nutsedge, Yellow", "result": 5, "unit": "%"}, {"measurement": "pest or weed control at 62 g/ha", "setting": "[11]; Cyperus, post-emergence, Postemergence, 62 g ai/ha, scale 0 to 100 (0 no effect, 100 complete control), read-out: Plant response rating, Nutsedge, Yellow", "result": 5, "unit": "%"}, {"measurement": "Ragweed plant response rating", "setting": "[12]; [19]", "result": 45}, {"measurement": "pest or weed control at 16 g/ha", "setting": "[12]; Ambrosia artemisiifolia, post-emergence, 16 g ai/ha, postemergence, 0 is no effect, 100 is complete control, read-out: Plant response rating (0 to 100), Ragweed", "result": 35, "unit": "%"}, {"measurement": "pest or weed control at 125 g/ha", "setting": "[12]; Ambrosia artemisiifolia, post-emergence, 125 g ai/ha, postemergence, visual rating, scale 0 to 100 (0 no effect, 100 complete control), read-out: Plant response rating, Ragweed", "result": 80, "unit": "%"}, {"measurement": "pest or weed control at 62 g/ha", "setting": "[12]; Ambrosia artemisiifolia, post-emergence, Postemergence, 62 g ai/ha, scale 0 to 100 (0 no effect, 100 complete control), read-out: Plant response rating, Ragweed", "result": 60, "unit": "%"}, {"measurement": "plant injury at 125 g/ha", "setting": "[13]; 125 g ai/ha, read-out: Wheat plant response rating", "result": 60, "unit": "%"}, {"measurement": "plant injury at 500 g/ha", "setting": "[13]; 500 g ai/ha, read-out: Plant response rating, Wheat", "result": 70, "unit": "%"}, {"measurement": "plant injury at 16 g/ha", "setting": "[14]; 16 g ai/ha, preemergence, scale 0 to 100 (0 no effect, 100 complete control), read-out: Corn plant response rating", "result": 0, "unit": "%"}, {"measurement": "plant injury at 62 g/ha", "setting": "[14]; 62 g ai/ha, preemergence, scale 0 (no effect) to 100 (complete control), read-out: Corn plant response rating", "result": 40, "unit": "%"}, {"measurement": "plant injury at 125 g/ha", "setting": "[14]; 125 g ai/ha, preemergence, scale 0 (no effect) to 100 (complete control), read-out: Corn plant response rating", "result": 80, "unit": "%"}, {"measurement": "Corn plant response rating (crop injury, 0 = no effect, 100 = complete kill) at 31 g/ha", "setting": "[14]; Preemergence, 31 g ai/ha, scale 0 to 100, 0 no effect, 100 complete control", "result": 25, "unit": "%"}, {"measurement": "pest or weed control at 16 g/ha", "setting": "[15]; 16 g ai/ha, postemergence, 0 is no effect, 100 is complete control, read-out: Plant response rating (0 to 100), Galium", "result": 80, "unit": "%"}, {"measurement": "pest or weed control at 31 g/ha", "setting": "[15]; 31 g ai/ha, postemergence, visual rating, scale 0 to 100 (0 no effect, 100 complete control), 13 to 15 days, read-out: Galium plant response rating", "result": 85, "unit": "%"}, {"measurement": "pest or weed control at 125 g/ha", "setting": "[15]; 125 g ai/ha, postemergence, visual rating, scale 0 to 100 (0 no effect, 100 complete control), read-out: Plant response rating, Galium", "result": 95, "unit": "%"}, {"measurement": "pest or weed control at 62 g/ha", "setting": "[15]; Postemergence, 62 g ai/ha, scale 0 to 100 (0 no effect, 100 complete control), read-out: Plant response rating, Galium", "result": 90, "unit": "%"}]}
